Test results: patent US20100311714A1, “1H-IMIDAZO[4,5-c]QUINOLINONE COMPOUNDS” (priority 2009, published 2010)
pIC50: −log10 of the molar value. Read-outs that look alike come from different tables or passages of the source.

Assays:
PI3K gamma = target: T1, PI3K gamma (Homo sapiens, UniProt P48736); experiment: PI3K gamma kinase assay (Kinase-Glo luminescence); type: biochemical; conditions: read-out: PI3Kgamma/IC50
T1 construct: His tag (C); made in house; host or cells: construct from Roger Williams lab (pVL1393); baculovirus BV950; Tn5 (Trichoplusia ni) or TiniPro insect cells
Description: In a more preferred assay, the kinase reaction is performed in a final volume of 10 μL per well of a low volume non binding CORNING, 384 well black plate (Cat. No. #3676). The final concentrations of ATP and phosphatidyl inositol (PI) in the assay are 1 μM and 10 μg/mL respectively. The reaction is started by the addition of ATP.
The components of the assay are added per well as follows:
50 nL test compounds in 90% DMSO per well, in columns 1-20, 8 concentrations (⅓ and 1/3.33 serial dilution step) in single. • Low control: […] of 90% DMSO in half the wells of columns 23-24 (0.45% in final). • High control: 50 nL of reference compound (e.g. compound of Example 7 in WO 2006/122806) in the other half of columns 23-24 (2.5 μM in final). • Standard: 50 nL of reference compound as just mentioned diluted as the test compounds in columns 21-22 • 20 mL ‘buffer’ are prepared per assay: • 200 μL of 1M TRIS HCl pH7.5 (10 mM in final) • 60 μL of 1M MgCl2 (3 mM in final) • 500 μL of 2M NaCl (50 mM in final) • 100 μL of 10% CHAPS (0.05% in final) • 200 μL of 100 mM DTT (1 mM in final) • 18.94 mL of nanopure water • 10 mL ‘PI’ are prepared per assay: • 200 μL of 1 mg/ml L-alpha-Phosphatidylinositol (Liver Bovine, Avanti Polar Lipids Cat. No. 840042C MW=909.12) prepared in 3% OctylGlucoside (10 μg/ml in final) • 9.8 mL of ‘buffer’ • 10 mL ‘ATP’ are prepared per assay: • 6.7 μL of 3 mM stock of ATP giving a final concentration of 1 μM per well • 10 mL of ‘buffer’ • 2.5 mL of each PI3K construct are prepared per assay in ‘PI’ with the following final concentration: • 10 nM PI3K alfa EMV B1075 • 25 nM beta EMV BV949 • 10 nM delta EMV BV1060 • 150 nM gamma EMV BV950 • 5 μL of ‘PI/PI3K’ are added per well. • 5 μl ‘ATP’ are added per well to start the reaction. • The plates are then incubated at room temperature for 60 minutes (alfa, beta, delta) or 120 minutes (gamma). • The reaction is terminated by the addition of 10 μL Kinase-Glo (Promega Cat. No. #6714). • The assay plates are read after 10 minutes in Synergy 2 reader (BioTek, Vermont USA) with an integration time of 100 milliseconds and sensitivity set to 191. • Output: The High control is around 60′000 counts and the Low control is 30′000 or lower • This luminescence assay gives a useful Z′ ratio between 0.4 and 0.7
PI3K gamma is purified in two chromatographic steps: immobilized metal affinity chromatography (IMAC) on a Ni Sepharose resin (GE Healthcare) and gel filtration (GFC) utilizing a Superdex 200 26/60 column (GE Healthcare). All buffers are chilled to 4° C. and lysis is performed chilled on ice. Column fractionation is performed rapidly at room temperature. Typically frozen insect cells are lysed in a hypertonic lysis buffer and applied to a prepared IMAC column. The resin is washed with 3-5 column volumes of lysis buffer, followed by 3-5 column volumes wash buffer containing 45 mM imidazole, and the target protein is then eluted with a buffer containing 250 mM imidazole. Fractions are analyzed by Coomassie stained SDS-PAGE gels, and fractions containing target protein are pooled and applied to a prepared GFC column. Fractions from the GFC column are analyzed by Coomassie stained SDS-PAGE gels, and fractions containing target protein are pooled. The final pool is dialyzed into a storage buffer containing 50% glycerol and stored at −20° C. The final pool is assayed for activity in the phosphoinostitol kinase assay.
IC50 is determined by a four parameter curve fitting routine that comes along with “excel fit”. A 4 Parameter logistic equation is used to calculate IC50 values (IDBS XLfit) of the percentage inhibition of each compound at 8 concentrations (usually 10, 3.0, 1.0, 0.3, 0.1, 0.030, 0.010 and 0.003 μM). Alternatively, IC50 values are calculated using idbsXLfit model 204, which is a 4 parameter logistic model.

PI3K delta = target: T2, PI3K delta (Homo sapiens, UniProt O00329); experiment: PI3K delta kinase assay (Kinase-Glo luminescence); type: biochemical
T2 construct: for the full-length p110-d subunit are generated and fused by overlapping PCR; His tag (C); made in house; host or cells: baculovirus BV1060; Tn5 (Trichoplusia ni) or TiniPro insect cells
Outline: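 IC50s derive from 8-point inhibition curves fitted to a 4-parameter logistic model. Reaction: 10 nM purified p110δ/p85 iSH2 fusion, 1 μM ATP, 10 μg/mL PI substrate, pH 7.5 Tris buffer with MgCl2, NaCl, CHAPS and DTT, run 60 min at room temperature; remaining ATP read by Kinase-Glo luminescence.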

T2 sequence (O00329 with tags, fused parts or gaps limits assumed): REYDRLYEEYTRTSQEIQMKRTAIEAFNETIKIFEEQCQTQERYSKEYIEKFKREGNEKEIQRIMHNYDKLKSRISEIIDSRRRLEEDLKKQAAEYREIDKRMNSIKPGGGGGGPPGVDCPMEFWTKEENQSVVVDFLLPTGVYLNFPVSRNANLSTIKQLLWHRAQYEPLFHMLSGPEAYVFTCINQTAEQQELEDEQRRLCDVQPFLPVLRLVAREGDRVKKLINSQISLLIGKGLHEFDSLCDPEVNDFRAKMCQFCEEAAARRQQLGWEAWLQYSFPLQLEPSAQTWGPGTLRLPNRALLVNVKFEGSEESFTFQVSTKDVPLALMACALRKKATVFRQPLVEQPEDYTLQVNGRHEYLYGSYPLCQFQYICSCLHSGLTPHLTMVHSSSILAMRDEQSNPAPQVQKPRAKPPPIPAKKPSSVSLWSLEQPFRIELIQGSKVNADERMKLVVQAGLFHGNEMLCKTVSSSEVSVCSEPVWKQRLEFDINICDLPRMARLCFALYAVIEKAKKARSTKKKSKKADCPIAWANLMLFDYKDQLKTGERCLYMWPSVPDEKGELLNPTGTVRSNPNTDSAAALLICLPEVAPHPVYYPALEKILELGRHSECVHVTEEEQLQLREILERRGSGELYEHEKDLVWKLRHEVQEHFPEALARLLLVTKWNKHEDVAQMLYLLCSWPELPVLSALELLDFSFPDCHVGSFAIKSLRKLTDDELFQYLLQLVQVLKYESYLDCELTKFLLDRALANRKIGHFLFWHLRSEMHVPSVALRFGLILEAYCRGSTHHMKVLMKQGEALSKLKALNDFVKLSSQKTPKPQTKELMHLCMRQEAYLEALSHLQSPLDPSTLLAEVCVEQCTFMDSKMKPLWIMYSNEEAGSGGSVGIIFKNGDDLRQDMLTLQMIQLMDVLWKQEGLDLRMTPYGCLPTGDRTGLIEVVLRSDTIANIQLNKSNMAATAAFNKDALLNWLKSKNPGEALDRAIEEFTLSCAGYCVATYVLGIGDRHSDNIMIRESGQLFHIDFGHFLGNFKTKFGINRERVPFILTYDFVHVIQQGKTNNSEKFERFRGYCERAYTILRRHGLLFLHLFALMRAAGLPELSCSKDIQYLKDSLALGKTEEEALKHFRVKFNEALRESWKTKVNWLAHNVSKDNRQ
T1 sequence (P48736 144-1102 limits assumed): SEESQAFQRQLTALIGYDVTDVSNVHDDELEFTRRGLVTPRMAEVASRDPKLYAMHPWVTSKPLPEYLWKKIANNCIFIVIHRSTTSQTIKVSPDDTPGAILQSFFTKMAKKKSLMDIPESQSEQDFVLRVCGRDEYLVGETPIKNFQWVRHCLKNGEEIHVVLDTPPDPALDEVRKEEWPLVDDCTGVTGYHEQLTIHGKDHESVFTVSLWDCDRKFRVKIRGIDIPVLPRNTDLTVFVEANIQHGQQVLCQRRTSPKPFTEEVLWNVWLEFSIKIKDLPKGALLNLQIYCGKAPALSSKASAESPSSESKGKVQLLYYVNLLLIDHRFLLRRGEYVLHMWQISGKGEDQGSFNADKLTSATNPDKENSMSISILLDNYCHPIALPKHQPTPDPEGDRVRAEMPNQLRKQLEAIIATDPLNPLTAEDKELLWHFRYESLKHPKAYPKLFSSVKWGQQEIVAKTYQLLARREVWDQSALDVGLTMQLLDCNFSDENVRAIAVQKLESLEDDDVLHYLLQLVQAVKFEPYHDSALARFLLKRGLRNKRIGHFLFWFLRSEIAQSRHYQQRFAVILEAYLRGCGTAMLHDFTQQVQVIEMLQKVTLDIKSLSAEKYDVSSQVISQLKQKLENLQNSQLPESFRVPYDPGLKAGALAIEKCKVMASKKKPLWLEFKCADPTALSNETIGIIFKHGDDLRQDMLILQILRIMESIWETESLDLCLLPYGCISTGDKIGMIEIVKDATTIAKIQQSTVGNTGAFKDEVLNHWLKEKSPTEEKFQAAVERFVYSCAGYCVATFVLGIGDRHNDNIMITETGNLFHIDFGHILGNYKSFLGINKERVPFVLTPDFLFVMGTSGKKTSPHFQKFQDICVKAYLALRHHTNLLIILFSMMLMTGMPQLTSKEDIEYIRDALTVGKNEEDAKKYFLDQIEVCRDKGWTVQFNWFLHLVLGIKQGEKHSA

| Compound | pIC50 (PI3K gamma) | pIC50 (PI3K delta; read-out: PI3Kdelta/IC50) | pIC50 (PI3K delta; read-out: EPK_PI3Kdelta/IC50) |
| --- | --- | --- | --- |
| Cn1c(=O)n(-c2cccnc2F)c2c3cc(-c4cnc(N)c(C(F)(F)F)c4)ccc3ncc21 [Example 6.2, 8-(6-Amino-5-trifluoromethyl-pyridin-3-yl)-1-(2-fluoro-pyridin-3-yl)-3-methyl-1,3-dihydro-imidazo[4,5-c]quinolin-2-one] | 6.86 | 7.92 | – |
| CNC(=O)c1ccc(-c2ccc3ncc4c(c3c2)n(-c2ncccc2C)c(=O)n4C)cc1 [Example 3.5, N-Methyl-4-[3-methyl-1-(3-methyl-pyridin-2-yl)-2-oxo-2,3-dihydro-1H-imidazo[4,5-c]quinolin-8-yl]-benzamide] | 6.36 | – | – |
| Cc1ncccc1-n1c(=O)n(C)c2cnc3ccc(-c4ccc(C(N)=O)cc4)cc3c21 [Example 2.3, 4-[3-Methyl-1-(2-methyl-pyridin-3-yl)-2-oxo-2,3-dihydro-1H-imidazo[4,5-c]quinolin-8-yl]-benzamide] | 6.64 | 7.03 | – |
| Cc1ncccc1-n1c(=O)n(C)c2cnc3ccc(-c4ccc(CO)nc4)cc3c21 [Example 2.6, 8-(6-Hydroxymethyl-pyridin-3-yl)-3-methyl-1-(2-methyl-pyridin-3-yl)-1,3-dihydro-imidazo[4,5-c]quinolin-2-one] | 6.04 | 7.23 | – |
| CN(C)c1ccc(-c2ccc3ncc4c(c3c2)n(-c2cccnc2)c(=O)n4C)cn1 [Example 5.3, 8-(6-Dimethylamino-pyridin-3-yl)-3-methyl-1-pyridin-3-yl-1,3-dihydro-imidazo[4,5-c]quinolin-2-one] | 6.44 | 6.71 | – |
| Cc1nc(N2CC[C@H](O)C2)ccc1-n1c(=O)n(C)c2cnc3ccc(-c4cncc(OC(C)C)c4)cc3c21 [Example 32.8, 1-[6-((S)-3-Hydroxy-pyrrolidin-1-yl)-2-methyl-pyridin-3-yl]-8-(5-isopropoxy-pyridin-3-yl)-3-methyl-1,3-dihydro-imidazo[4,5-c]quinolin-2-one] | – | – | 7.41 |
| Cc1nc(N2CCN(C)C(=O)C2)ccc1-n1c(=O)n(C)c2cnc3ccc(-c4cnc(N)c(C(F)(F)F)c4)cc3c21 [Example 21.1, 8-(6-Amino-5-trifluoromethyl-pyridin-3-yl)-3-methyl-1-[2-methyl-6-(4-methyl-3-oxo-piperazin-1-yl)-pyridin-3-yl]-1,3-dihydro-imidazo[4,5-c]quinolin-2-one] | – | – | 8.30 |
| CCOc1cc(-c2ccc3ncc4c(c3c2)n(-c2ccc(OCCOC)nc2C)c(=O)n4C)cnc1COC [Example 22.1, 8-(5-Ethoxy-6-methoxymethyl-pyridin-3-yl)-1-[6-(2-methoxy-ethoxy)-2-methyl-pyridin-3-yl]-3-methyl-1,3-dihydro-imidazo[4,5-c]quinolin-2-one] | – | – | 7.22 |
| Cc1nc(C(C)(C)O)ccc1-n1c(=O)n(C)c2cnc3ccc(-c4cncc(C(C)(C)C#N)c4)cc3c21 [Example 31.6, 2-(5-{1-[6-(1-Hydroxy-1-methyl-ethyl)-2-methyl-pyridin-3-yl]-3-methyl-2-oxo-2,3-dihydro-1H-imidazo[4,5-c]quinolin-8-yl}-pyridin-3-yl)-2-methyl-propionitrile] | – | – | 8.15 |
| CNc1ncc(-c2ccc3ncc4c(c3c2)n(-c2ccc(N3CC(O)C3)nc2C)c(=O)n4C)cc1F [Example 29.3, 8-(5-Fluoro-6-methylamino-pyridin-3-yl)-1-[6-(3-hydroxy-azetidin-1-yl)-2-methyl-pyridin-3-yl]-3-methyl-1,3-dihydro-imidazo[4,5-c]quinolin-2-one] | – | – | 7.64 |
| CNc1ncc(-c2ccc3ncc4c(c3c2)n(-c2ccc(N3CC[C@H](O)C3)nc2C)c(=O)n4C)cc1C(F)(F)F [Example 32.5, 1-[6-((S)-3-Hydroxy-pyrrolidin-1-yl)-2-methyl-pyridin-3-yl]-3-methyl-8-(6-methylamino-5-trifluoromethyl-pyridin-3-yl)-1,3-dihydro-imidazo[4,5-c]quinolin-2-one] | – | – | 8.40 |
| CCOc1ncc(-c2ccc3ncc4c(c3c2)n(-c2cccnc2C)c(=O)n4C)cn1 [Example 2.5, 8-(2-Ethoxy-pyrimidin-5-yl)-3-methyl-1-(2-methyl-pyridin-3-yl)-1,3-dihydro-imidazo[4,5-c]quinolin-2-one] | – | 7.24 | – |
| COc1nc(N2CCNCC2)ccc1-n1c(=O)n(C)c2cnc3ccc(-c4cnc(N)c(C(F)(F)F)c4)cc3c21 [Example 9.2, 8-(6-Amino-5-trifluoromethyl-pyridin-3-yl)-1-(2-methoxy-6-piperazin-1-yl-pyridin-3-yl)-3-methyl-1,3-dihydro-imidazo[4,5-c]quinolin-2-one] | – | 7.82 | – |
| CNc1ccc(-c2ccc3ncc4c(c3c2)n(-c2ccc(N3CCC3)nc2C)c(=O)n4C)cn1 [Example 23.4, 1-(6-Azetidin-1-yl-2-methyl-pyridin-3-yl)-3-methyl-8-(6-methylamino-pyridin-3-yl)-1,3-dihydro-imidazo[4,5-c]quinolin-2-one] | – | – | 7.32 |

Other lines, results leading:

| pIC50 (PI3K gamma) | pIC50 (PI3K delta; read-out: PI3Kdelta/IC50) | pIC50 (PI3K delta; read-out: EPK_PI3Kdelta/IC50) | Compound |
| --- | --- | --- | --- |
| 6.41 | 6.63 | – | CNc1ncc(-c2ccc3ncc4c(c3c2)n(-c2ncccc2C)c(=O)n4C)cn1 [Example 3.4, 3-Methyl-8-(2-methylamino-pyrimidin-5-yl)-1-(3-methyl-pyridin-2-yl)-1,3-dihydro-imidazo[4,5-c]quinolin-2-one] |
| 6.28 | – | – | CCOc1ccc(-c2ccc3ncc4c(c3c2)n(-c2ncccc2C)c(=O)n4C)cn1 [Example 3.6, 8-(6-Ethoxy-pyridin-3-yl)-3-methyl-1-(3-methyl-pyridin-2-yl)-1,3-dihydro-imidazo[4,5-c]quinolin-2-one] |
| 6.71 | 7.70 | – | CNc1ccc(-c2ccc3ncc4c(c3c2)n(-c2cccnc2C)c(=O)n4C)cn1 [Example 2.13, 3-Methyl-8-(6-methylamino-pyridin-3-yl)-1-(2-methyl-pyridin-3-yl)-1,3-dihydro-imidazo[4,5-c]quinolin-2-one] |
| 6.36 | 6.92 | – | COc1ccc(-c2ccc3ncc4c(c3c2)n(-c2cnccc2C)c(=O)n4C)cn1 [Example 4.3, 8-(6-Methoxy-pyridin-3-yl)-3-methyl-1-(4-methyl-pyridin-3-yl)-1,3-dihydro-imidazo[4,5-c]quinolin-2-one] |
| 6.41 | 7.46 | – | Cc1ncccc1-n1c(=O)n(C)c2cnc3ccc(-c4ccc(N)nc4)cc3c21 [Example 2.7, 8-(6-Amino-pyridin-3-yl)-3-methyl-1-(2-methyl-pyridin-3-yl)-1,3-dihydro-imidazo[4,5-c]quinolin-2-one] |
| 6.07 | – | – | Cc1cccnc1-n1c(=O)n(C)c2cnc3ccc(-c4ccc(N(C)C)nc4)cc3c21 [Example 3.11, 8-(6-Dimethylamino-pyridin-3-yl)-3-methyl-1-(3-methyl-pyridin-2-yl)-1,3-dihydro-imidazo[4,5-c]quinolin-2-one] |
